Inconclusive results are not listed. Calls of active or inactive are those of the source.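 Rule for the calls: active = compound giving calcium release at least equal to the estrogen response, or cutting estrogen-driven calcium release by 60% or more; inconclusive = compound glowing brighter than the detergent maximum; inactive = the rest.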
target: G-protein coupled estrogen receptor 1 (Homo sapiens) (UniProt Q99527); assay: GPER-mediated calcium mobilization modulators – HL-60 cells, Indo-1 fluorescence, 10 µM, primary screen (AID 1213); conditions: Indo-1 calcium mobilization, at 10 µM, stronger effect = higher value

SMILES	calcium mobilization (agonist)
CCn1nnc(NC(=O)CSc2ccc(Cl)cc2)n1	0% (inactive)
CN(C)C(=O)c1ccc2c(c1)C1C3CCC(C3)C1C(c1ccccc1)N2 (stereo not given)	100%
CC(C)c1ccc2c(c1)[C@H]1OCC[C@H]1[C@@H](c1cccs1)N2	0% (inactive)
CC(=O)c1ccc2c(c1)C1C=CCC1C(c1ccncc1)N2 (stereo not given)	100%
O=C(O)c1cc(Cl)c2c(c1)[C@@H]1C=CC[C@@H]1[C@H](c1ccc(S(=O)(=O)N3CCOCC3)cc1)N2	0% (inactive)
Cc1cc(-c2nn3c(-c4ccccc4)nnc3s2)c2ccccc2n1	0% (inactive)
FC(F)(F)c1ccc2c(c1)C1C=CCC1C(c1ccncc1)N2 (stereo not given)	0% (inactive)
Cc1c(Cl)cccc1NS(=O)(=O)c1ccc2c(c1)C1C=CCC1C(c1ccc(C(=O)O)cc1)N2 (stereo not given)	0%
C[C@]12CC[C@@H]3c4ccc(O)cc4C(=O)C[C@H]3[C@@H]1CC[C@@H]2O	0% (inactive)
O=C(O)c1ccc2c(c1)C1C=CCC1C(c1cc3c(cc1Br)OCO3)N2 (stereo not given)	100%
O=C(O)c1ccc(Cl)c2c1C1C=CCC1C(c1ccccn1)N2 (stereo not given)	50% (inactive)
O=C(O)c1ccc2c(c1)[C@@H]1C=CC[C@@H]1[C@H](c1ccccn1)N2	0% (inactive)
Nc1ncnc2c1ncn2C1CCC(CO)C(O)C1 (stereo not given)	0% (inactive)
Fc1ccc2c(c1)C1C=CCC1C(c1cc3c(cc1Br)OCO3)N2 (stereo not given)	100%
O=C(COC(=O)CCC(=O)c1cccs1)NCc1ccco1	0% (inactive)
CCCC1Nc2ccc(C(=O)O)cc2C2C=CCC12 (stereo not given)	0% (inactive)

SMILES	calcium mobilization (agonist)
O=S(=O)(NCCc1csc(-c2cccnc2)n1)c1ccc(Cl)s1	100%
CC(=O)c1ccc2c(c1)C1C=CCC1C(C(=O)O)N2 (stereo not given)	0% (inactive)
COc1ccc(CNC(=O)c2cc(-c3cccs3)on2)cc1	0% (inactive)
CCOC(=O)c1ccc2c(c1)C1C=CCC1C(C(=O)O)N2 (stereo not given)	0% (inactive)
Fc1ccc2c(c1)[C@H]1OCC[C@H]1[C@@H](c1ccco1)N2	100%
Cc1ccc2c(c1C)NC(C(=O)O)C1CC=CC21 (stereo not given)	0%
COc1ccc(C(=O)N/N=C(\C)c2ccc3c(c2)C2C=CCC2C(c2ccccc2)N3)cc1 (stereo not given)	50% (inactive)
O=C(O)C1Nc2c(O)cccc2C2C=CCC12 (stereo not given)	50% (inactive)
O=C(O)C1Nc2c(O)cc(Cl)c([N+](=O)[O-])c2C2C=CCC12 (stereo not given)	0% (inactive)
CCc1ccc(-c2nn(-c3ccccc3)cc2CSC(=N)N)cc1	50% (inactive)
O=C(O)c1ccc(NS(=O)(=O)c2ccc3c(c2)C2C=CCC2C(c2ccccc2F)N3)cc1 (stereo not given)	0% (inactive)
CC(=O)N1c2ccc(Cl)cc2C2C=CCC2C1c1cccc2ccccc12 (stereo not given)	100%
Cc1nn(-c2ccccc2)c(/N=C/c2ccc(O)cc2)c1-c1ccccc1	0% (inactive)
CC(C)C1Nc2ccc(S(N)(=O)=O)cc2C2C=CCC21 (stereo not given)	0% (inactive)
Oc1ccc(-c2nc3ccc4ccccc4c3c3c2CCC3)cc1O	0% (inactive)

same assay, conditions: Indo-1 calcium mobilization, measured here: antagonist mode response, at 10 µM

SMILES	inhibition of estrogen-induced calcium mobilization (higher = more inhibition) [%]
CC(C)C1Nc2ccc(C(=O)O)cc2C2C=CCC21 (stereo not given)	100
Cc1cc(C)c2c(c1)[C@@H]1C=CC[C@@H]1[C@H](c1ccc(S(=O)(=O)N3CCOCC3)cc1)N2	100
Cc1ccc2c(c1)[C@H]1OCC[C@H]1[C@@H](c1ccncc1)N2	50
O=C1NC(c2ccc(Br)cc2)Nc2sc3c(c21)CCC3 (stereo not given)	50
O=C(O)c1ccc2c(c1)C1C(Cl)C(Sc3ccccc3[N+](=O)[O-])CC1C(c1cccc([N+](=O)[O-])c1)N2 (stereo not given)	100
Cc1ccc2c(c1Cl)NC(C(=O)O)C1CC(Sc3ccccc3[N+](=O)[O-])C(Cl)C21 (stereo not given)	100
COc1cccc(NS(=O)(=O)c2ccc3c(c2)C2C=CCC2C(c2ccc(C(=O)O)cc2)N3)c1 (stereo not given)	100
CCC(=O)Oc1ccc(/C(CC)=C(\CC)c2ccc(OC(=O)CC)cc2)cc1	50
Cc1ccc2c(c1)C1C=CCC1C(C(=O)O)N2 (stereo not given)	50
FC(F)(F)c1ccc2c(c1)C1C=CCC1C(c1ccncc1)N2 (stereo not given)	50
Cc1c(Cl)cccc1NS(=O)(=O)c1ccc2c(c1)C1C=CCC1C(c1ccc(C(=O)O)cc1)N2 (stereo not given)	100
Cc1ccc2c(c1C)NC(C(=O)O)C1CC=CC21 (stereo not given)	100
COc1ccc(C(=O)N/N=C(\C)c2ccc3c(c2)C2C=CCC2C(c2ccccc2)N3)cc1 (stereo not given)	50
O=C(O)c1ccc(NS(=O)(=O)c2ccc3c(c2)C2C=CCC2C(c2ccccc2F)N3)cc1 (stereo not given)	50
